# Reference: patent publication US20120122906A1, “NOVEL SULFONAMIDE DERIVATIVE AND PHARMACEUTICAL PRODUCT CONTAINING SAME” (KOWA COMPANY, LTD., priority 2009, published 2012)
# Target: T1, angiotensin II type 1 receptor (Oryctolagus cuniculus, UniProt P34976)
# T1 construct: By using a specimen of isolated rabbit blood vessels; from tissue; host or cells: rabbit thoracic aorta ring (New Zealand White, male)
# T1 sequence (P34976 1-359): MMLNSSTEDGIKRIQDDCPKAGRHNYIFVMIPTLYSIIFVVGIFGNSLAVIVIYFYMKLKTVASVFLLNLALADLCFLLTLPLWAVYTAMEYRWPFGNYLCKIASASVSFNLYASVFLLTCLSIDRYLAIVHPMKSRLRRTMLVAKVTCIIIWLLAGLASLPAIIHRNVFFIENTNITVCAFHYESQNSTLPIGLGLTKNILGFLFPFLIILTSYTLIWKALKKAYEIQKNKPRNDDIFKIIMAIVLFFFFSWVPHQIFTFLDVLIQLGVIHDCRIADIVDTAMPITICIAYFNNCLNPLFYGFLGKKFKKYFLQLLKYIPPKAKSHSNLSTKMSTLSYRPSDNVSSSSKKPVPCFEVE
# Experiment: Angiotensin II antagonistic activity in isolated rabbit blood vessels (angiotensin II-induced contraction of thoracic aorta ring)
# Settings: 0.1 μM compound, angiotensin II (10 nM)-induced contraction, read-out: Angiotensin II activity inhibition rate (%) at 0.1 μM concentration
# Method: By using a specimen of isolated rabbit blood vessels, antagonistic activity of the compounds of the invention against angiotensin II type 1 receptor was estimated from a dose-response curve of angiotensin II-induced blood vessel contraction. Specifically, the specimen of thoracic aorta ring of a rabbit (New Zealand White: male, 2.4 to 3.0 kg) was suspended in a magnus bath filled with Krebs-Henseleite buffer (composition: 118 mM NaCl, 4.7 mM KCl, 2.55 mM CaCl2, 1.18 mM MgSO4, 1.18 mM KH2PO4, 24.88 mM NaHCO3, and 11.1 mM D-glucose), and angiotensin II (10 nM)-induced contraction was obtained in the presence of the compounds of each example (1 nmol to 10 μmol/L). During the measurement, the inside temperature of the magnus bath was maintained at 37° C. and the bath was continuously ventilated with a sufficient amount of mixed gas (95% O2 and 5% CO2). The angiotensin II-induced contraction was converted into a relative value (%) that is based on the angiotensin II (10 nM)-induced contraction in the absence of the compounds of each example. From the concentration-response curve obtained therefrom, 50% inhibition concentration (IC50 value) was calculated by using SAS Preclinical Package Ver 5.0 (trade name, manufactured by SAS institute Japan Co., Tokyo, Japan), which is a statistical analysis program.
row,SMILES,inhibition at 0.1 µM [%]
1,"CCCCc1nc(C)n(-c2ncc(OC)cn2)c(=O)c1Cc1ccc(-c2ccccc2S(=O)(=O)NC(=O)C2CCCCC2)cc1 [Example 5, N-{4′-{[4-butyl-1-(5-methoxypyrimidin-2-yl)-2-methyl-6-oxo-1,6-dihydropyrimidin-5-yl]methyl}biphenyl-2-ylsulfonyl}cyclohexanecarboxamide]",92.4
2,"CCCCc1nc(C)n(-c2ncc(OCC)cn2)c(=O)c1Cc1ccc(-c2ccccc2S(=O)(=O)NC(=O)C2CCCC2)cc1 [Example 9, N-{4′-{[4-butyl-1-(5-ethoxypyrimidin-2-yl)-2-methyl-6-oxo-1,6-dihydropyrimidin-5-yl]methyl}biphenyl-2-ylsulfonyl}cyclopentanecarboxamide]",100
3,"CCCCc1nc(C)n(-c2ncc(OC)cn2)c(=O)c1Cc1ccc(-c2ccccc2S(=O)(=O)NC(=O)C2CC2)cc1 [Example 3, N-{4′-{[4-butyl-1-(5-methoxypyrimidin-2-yl)-2-methyl-6-oxo-1,6-dihydropyrimidin-5-yl]methyl}biphenyl-2-ylsulfonyl}cyclopropanecarboxamide]",90
4,"CCCCc1nc(C)n(-c2ncc(OCC)cn2)c(=O)c1Cc1ccc(-c2ccccc2S(=O)(=O)NC(=O)C2CCCCC2)cc1 [Example 10, N-{4′-{[4-butyl-1-(5-ethoxypyrimidin-2-yl)-2-methyl-6-oxo-1,6-dihydropyrimidin-5-yl]methyl}biphenyl-2-ylsulfonyl}cyclohexanecarboxamide]",81.9
5,"CCCCc1nc(C)n(-c2ncc(OC)cn2)c(=O)c1Cc1ccc(-c2ccccc2S(=O)(=O)NC(=O)C2CCCC2)cc1 [Example 4, N-{4′-{[4-butyl-1-(5-methoxypyrimidin-2-yl)-2-methyl-6-oxo-1,6-dihydropyrimidin-5-yl]methyl}biphenyl-2-ylsulfonyl}cyclopentanecarboxamide]",100
6,"CCCCc1nc(C)n(-c2ncc(OCC)cn2)c(=O)c1Cc1ccc(-c2ccccc2S(=O)(=O)NC(=O)C2CC2)cc1 [Example 8, N-{4′-{[4-butyl-1-(5-ethoxypyrimidin-2-yl)-2-methyl-6-oxo-1,6-dihydropyrimidin-5-yl]methyl}biphenyl-2-ylsulfonyl}cyclopropanecarboxamide]",77.5
7,"CCCCc1nc(C)n(-c2ncc(OC)cn2)c(=O)c1Cc1ccc(-c2ccccc2S(=O)(=O)NC(=O)CC)cc1 [Example 1, N-{4′-{[4-butyl-1-(5-methoxypyrimidin-2-yl)-2-methyl-6-oxo-1,6-dihydropyrimidin-5-yl]methyl}biphenyl-2-ylsulfonyl}propionamide]",71.7
8,"CCCCCC(=O)NS(=O)(=O)c1ccccc1-c1ccc(Cc2c(CCCC)nc(C)n(-c3ncc(OC)cn3)c2=O)cc1 [Example 2, N-{4′-{[4-butyl-1-(5-methoxypyrimidin-2-yl)-2-methyl-6-oxo-1,6-dihydropyrimidin-5-yl]methyl}biphenyl-2-ylsulfonyl}hexanamide]",91.9

# Target: T2, human PPARγ2 (Homo sapiens, UniProt P37231)
# T2 construct: the amino acids 182 to 505 of human PPARγ2; expressed in transfected cells
# T2 sequence (P37231 182-505): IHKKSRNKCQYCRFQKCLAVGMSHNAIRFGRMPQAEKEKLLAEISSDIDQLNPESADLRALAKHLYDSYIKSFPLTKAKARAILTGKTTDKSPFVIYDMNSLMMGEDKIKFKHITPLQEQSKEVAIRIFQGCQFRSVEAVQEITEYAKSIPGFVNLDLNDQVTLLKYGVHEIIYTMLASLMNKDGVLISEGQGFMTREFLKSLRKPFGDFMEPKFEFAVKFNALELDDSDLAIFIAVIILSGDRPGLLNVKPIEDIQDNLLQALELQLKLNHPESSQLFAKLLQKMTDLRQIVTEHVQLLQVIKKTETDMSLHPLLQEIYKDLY
# Experiment: PPARγ activation activity, Gal4-PPARγ2 LBD luciferase transfection assay in COST cells
# Type: cell-based
# Settings: Gal4-human PPARγ2 LBD luciferase reporter, 16 hours, rosiglitazone = 100%
# Method: The agonistic activity of the compounds of the invention on PPARγ was measured based on the transfection assay using COST cells (DS Pharma Biomedical Co., Ltd., Osaka, Japan), which are the cell line derived from the kidney of the African green monkey. COST cells were cultured under 5% CO2 concentration, and DMEM medium containing 10% fetal bovine serum, glutamic acid, and antibiotics was used as a medium.
# As an expression vector, a chimera in which DNA binding domain of Gal4, which is a yeast transcription factor, and ligand binding domain of human PPARγ2 are fused, i.e., a fused product between the amino acids 1 to 147 of Gal4 transcription factor and the amino acids 182 to 505 of human PPARγ2, was used. Furthermore, as a reporter vector, a firefly luciferase containing five copies of Gal4 recognition sequence in the promoter region was used. Plasmid transfection to the cells was performed according to a method which uses jetPEI (trade name, manufactured by Funakoshi Co., Ltd., Tokyo, Japan). Furthermore, β-galactosidase expression vector was employed as an internal standard.
# After the transfection of the cells, the medium was replaced with a DMEM medium (containing 1% serum) added with the compound, and the cells were further cultured for 16 hours. After that, the luciferase activity and β-galactosidase activity in the cell lysis solution were measured.
# For the present test, dimethyl sulfoxide (DMSO) was used for dissolution and dilution of the test compounds, and during the cell treatment, the DMSO concentration in DMEM medium (containing 1% serum) was adjusted to 0.1%. As a positive compound, rosiglitazone (trade name, manufactured by ALEXIS Corporation, Switzerland) was used. The luciferase activity (%) of the test compounds (1 to 30 μmol/L) was calculated when the luciferase activity of rosiglitazone (3 to 10 μmol/L) is 100% and the luciferase activity in the absence of the test compound is 0%. The 50% effective concentration of the test compound (EC50, 50% effect concentration) was calculated by using SAS Preclinical Package Ver 5.0 (trade name, manufactured by SAS institute Japan Co., Tokyo, Japan), which is a statistical analysis program.
# Under the same condition, the PPARγ activation activity of telmisartan, i.e., EC50, was 1 to 5 μM. In addition, it was confirmed that compounds of Examples not shown in Table 2 also have PPARγ activation activity at a concentration of 30 μM.
row,SMILES,EC50 [nM]
1,"CCCCc1nc(C)n(-c2ncc(OC(F)F)cn2)c(=O)c1Cc1ccc(-c2ccccc2S(=O)(=O)NC(=O)C2CC2)cc1 [Example 11, N-{4′-{{4-butyl-1-[5-(difluoromethoxy)pyrimidin-2-yl]-2-methyl-6-oxo-1,6-dihydropyrimidin-5-yl}methyl}biphenyl-2-ylsulfonyl}cyclopropanecarboxamide]",3370
2,"CCCCc1nc(C2CCCCC2)n(-c2ncc(OCC)cn2)c(=O)c1Cc1ccc(-c2ccccc2S(=O)(=O)NC(=O)C2CC2)cc1 [Example 19, N-{4′-{[4-butyl-2-cyclohexyl-1-(5-ethoxypyrimidin-2-yl)-6-oxo-1,6-dihydropyrimidin-5-yl]methyl}biphenyl-2-ylsulfonyl}cyclopropanecarboxamide]",510
3,"CCCCc1nc(CC)n(-c2ncc(OCC)cn2)c(=O)c1Cc1ccc(-c2ccccc2S(=O)(=O)NC(=O)C2CC2)cc1 [Example 13, N-{4′-{[4-butyl-1-(5-ethoxypyrimidin-2-yl)-2-ethyl-6-oxo-1,6-dihydropyrimidin-5-yl]methyl}biphenyl-2-ylsulfonyl}cyclopropanecarboxamide]",2790
4,"CCCCc1nc(C)n(-c2ncc(OCC)cn2)c(=O)c1Cc1ccc(-c2ccccc2S(=O)(=O)NC(=O)C2CCCC2)cc1 [Example 9, N-{4′-{[4-butyl-1-(5-ethoxypyrimidin-2-yl)-2-methyl-6-oxo-1,6-dihydropyrimidin-5-yl]methyl}biphenyl-2-ylsulfonyl}cyclopentanecarboxamide]",3520
5,"CCCc1nc2c(C)cc(-c3nc4ccccc4n3C)cc2n1Cc1ccc(-c2ccccc2C(=O)O)cc1 [telmisartan, reference compound]",1000 to 5000
6,"CCCCc1nc(C2CC2)n(-c2ncc(OC)cn2)c(=O)c1Cc1ccc(-c2ccccc2S(=O)(=O)NC(=O)C2CC2)cc1 [Example 15, N-{4′-{[4-butyl-2-cyclopropyl-1-(5-methoxypyrimidin-2-yl)-6-oxo-1,6-dihydropyrimidin-5-yl)methyl)biphenyl-2-ylsulfonyl]cyclopropanecarboxamide]",1050
7,"CCCCc1nc(C(C)C)n(-c2ncc(OCC)cn2)c(=O)c1Cc1ccc(-c2ccccc2S(=O)(=O)NC(=O)C2CC2)cc1 [Example 14, N-{4′-{[4-butyl-1-(5-ethoxypyrimidin-2-yl)-2-isopropyl-6-oxo-1,6-dihydropyrimidin-5-yl)methyl)biphenyl-2-ylsulfonyl]cyclopropanecarboxamide]",1360
8,"CCCCc1nc(C2CCCC2)n(-c2ncc(OCC)cn2)c(=O)c1Cc1ccc(-c2ccccc2S(=O)(=O)NC(=O)C2CC2)cc1 [Example 18, N-{4′-{[4-butyl-2-cyclopentyl-1-(5-ethoxypyrimidin-2-yl)-6-oxo-1,6-dihydropyrimidin-5-yl]methyl}biphenyl-2-ylsulfonyl}cyclopropanecarboxamide]",710
9,"CCCCc1nc(C)n(-c2ncc(OCC)cn2)c(=O)c1Cc1ccc(-c2ccccc2S(=O)(=O)NC(=O)C2CC2)cc1 [Example 8, N-{4′-{[4-butyl-1-(5-ethoxypyrimidin-2-yl)-2-methyl-6-oxo-1,6-dihydropyrimidin-5-yl]methyl}biphenyl-2-ylsulfonyl}cyclopropanecarboxamide]",3690
10,"CCCCc1nc(C2CC2)n(-c2ncc(OCC)cn2)c(=O)c1Cc1ccc(-c2ccccc2S(=O)(=O)NC(=O)C2CC2)cc1 [Example 16, N-{4′-{[4-butyl-2-cyclopropyl-1-(5-ethoxypyrimidin-2-yl)-6-oxo-1,6-dihydropyrimidin-5-yl]methyl}biphenyl-2-ylsulfonyl}cyclopropanecarboxamide]",2350
11,"CCCCc1nc(C2CCC2)n(-c2ncc(OCC)cn2)c(=O)c1Cc1ccc(-c2ccccc2S(=O)(=O)NC(=O)C2CC2)cc1 [Example 17, N-{4′-{[4-butyl-2-cyclobutyl-1-(5-ethoxypyrimidin-2-yl)-6-oxo-1,6-dihydropyrimidin-5-yl]methyl}biphenyl-2-ylsulfonyl}cyclopropanecarboxamide]",960
